# Results from patent publication US20070244155A1 (AMGEN INC., priority 2006, published 2007).
# Target: T1, human GPR40 (Homo sapiens, UniProt O14842)
# T1 construct: expressed in transfected cells; host or cells: CHO cells
# Test: Cell-based aequorin assay using human GPR40
# Details: CHO cells transfected with GPR40 and aequorin expression vectors; aequorin luminescence; activation of human GPR40; read-out: Relative EC50
# Method: A cell-based aequorin assay may be employed to characterize the modulatory activity of compounds on the GPR40 signaling pathway. In an exemplary assay, CHO cells are transfected in a 15 cm plated containing 14 million cells with 5 μg of GPR40 expression vector and 5 μg of Aequorin expression vector (Euroscreen) using Lipofectamine 2000 (Invitrogen). After 17-24 hours post-transfection, cells are washed with phosphate buffered saline (PBS) and detached from the tissue culture dish with 2 mL of trypsin (0.25%(w/v)). Trypsinization is halted with 28 mL of Hanks Buffered Salt Solution containing 20 mM Hepes (H/HBSS) and 0.01% fatty acid-free bovine serum albumin (BSA) or 0.625% fatty acid-free human serum albumin (HSA). Coelantrazine is added to 1 ug/mL and the cells are incubated for 2 hours at room temperature. Cells are gently mixed every 15 minutes. Compounds are dissolved in dimethyl sulfoxide for preparation of 10 mM stock solutions. Compounds are diluted in H/HBSS containing either 0.01% BSA or 0.625% HSA. Serial dilutions of the test compounds are prepared to determine dose response. Aequorin luminescence measurements are made using an EG&G Berthold 96-well luminometer and the response is measured over a 20 second interval after cells and compounds are mixed. The area-under-curve from 2-20 seconds is plotted to determine dose response. The EC50 (effective concentration to reach 50% maximal response) is determined from the dose response plot. Table 1 includes representative data (EC50 values) obtained for exemplary compounds of the invention for the relative activation of human GPR40. […] Therefore, in some embodiments, the invention provides any of the compounds listed in Table 1 individually or as members of a group and pharmaceutically acceptable salts, esters, solvates, tautomers, stereoisomers, and/or prodrugs thereof.
# T1 sequence (O14842 whole entry): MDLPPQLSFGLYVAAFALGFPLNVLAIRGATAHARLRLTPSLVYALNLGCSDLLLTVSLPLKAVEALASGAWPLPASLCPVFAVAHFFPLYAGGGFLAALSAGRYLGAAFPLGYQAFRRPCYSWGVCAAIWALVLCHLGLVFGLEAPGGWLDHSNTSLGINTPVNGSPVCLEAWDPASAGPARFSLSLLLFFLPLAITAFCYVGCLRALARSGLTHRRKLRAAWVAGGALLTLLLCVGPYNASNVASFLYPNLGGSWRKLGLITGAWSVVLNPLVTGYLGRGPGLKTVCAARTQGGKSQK
row,EC50 [µM],SMILES
1,0.1 to 1,"C=C1CCc2cc(OCc3cccc(-c4ccc(C(F)(F)F)cc4)c3)ccc2C1CC(=O)O (centres unmarked) [Example 38, 2-(6-(3-(4-Trifluoromethylphenyl)benzyloxy)-2-methylene-1,2,3,4-tetrahydronaphthalen-1-yl)acetic acid]"
2,0.1 to 1,C/C=C1/COc2cc(OCc3ccc(-c4cc(C)ccc4OCCCC)cc3)ccc2C1CC(=O)O (centres unmarked) [Example 41]
3,0.1 to 1,"O=C(O)CC1COCc2cc(OCc3cccc(-c4ccc(C(F)(F)F)cc4)c3)ccc21 (centres unmarked) [Example 42, 2-(7-(3-(4-Trifluoromethylphenyl)benzyloxy)-3,4-dihydro-1H-isochromen-4-yl)acetic acid]"
4,1 to 10,"Cc1ccccc1/C=C/c1ccc2c(c1)CCCC2CC(=O)O (centres unmarked) [Example 46, [6-((E)-2-o-Tolyl-vinyl)-1,2,3,4-tetrahydro-naphthalen-1-yl]-acetic acid]"
5,1 to 10,"COc1ccc(/C=C/c2ccc3c(c2)CCCC3CC(=O)O)cc1 (centres unmarked) [Example 47, {6-[(E)-2-(4-Methoxy-phenyl)-vinyl]-1,2,3,4-tetrahydro-naphthalen-1-yl}-acetic acid]"
6,1 to 10,"O=C(O)CC1CCCc2cc(CCc3ccc(C(F)(F)F)cc3)ccc21 (centres unmarked) [Example 48, {6-[2-(4-Trifluoromethyl-phenyl)-ethyl]-1,2,3,4-terahydro-naphthalen-1-yl}-acetic acid]"
7,1 to 10,"O=C(O)CC1CCCc2cc(CCc3ccc(-c4ccccc4)cc3)ccc21 (centres unmarked) [Example 49, [6-(2-Biphenyl-4-yl-ethyl)-1,2,3,4-tetrahydro-naphthalen-1-yl]-acetic acid]"
8,1 to 10,"COc1ccc(COc2ccc3c(c2)CCC(=O)N3CCC(=O)O)cc1 [Example 50, 3-[6-(4-Methoxy-benzyloxy)-2-oxo-3,4-dihydro-2H-quinolin-1-yl]-propionic acid]"
9,1 to 10,O=C(O)CCn1ccc2cc(OCc3cccc(-c4ccc(C(F)(F)F)cc4)c3)ccc21 [Example 51]
10,1 to 10,O=C(O)Cn1ccc2cc(OCc3cccc(-c4ccc(C(F)(F)F)cc4)c3)ccc21 [Example 52]
11,1 to 10,O=C(O)CCn1ccc2cc(OCc3ccccc3)ccc21 [Example 53]
12,1 to 10,"O=C(O)c1cc2ccc(OCc3cccc(Oc4ccccc4)c3)cc2oc1=O [Example 54, 7-(3-Phenoxybenzyloxy)-2-oxo-2H-chromene-3-carboxylic acid]"
13,0.1 to 1,Cc1cc(Cl)ccc1-c1cccc(COc2ccc3c(c2)CCC[C@@H]3CC(=O)O)c1 [Example 55]
14,0.1 to 1,Cc1nc(-c2ccc(C(F)(F)F)cc2)sc1COc1ccc2c(c1)CCC[C@@H]2CC(=O)O [Example 56]
15,1 to 10,"COc1cccc(-c2ccc(COc3ccc4c(c3)CCC[C@H]4CC(=O)O)cc2)c1 [Example 57, (S)-[6-(3′-Methoxy-biphenyl-4-ylmethoxy)-1,2,3,4-tetrahydro-naphthalen-1-yl]-acetic acid]"
16,1 to 10,"COc1cccc(-c2ccc(COc3ccc4c(c3)CCC[C@@H]4CC(=O)O)cc2)c1 [Example 58, (R)-[6-(3′-Methoxy-biphenyl-4-ylmethoxy)-1,2,3,4-tetrahydro-naphthalen-1-yl]-acetic acid]"
17,1 to 10,"CCOc1ccc(F)c(-c2ccc(COc3ccc4c(c3)CCC[C@H]4CC(=O)O)cc2)c1 [Example 59, (S)-[6-(5′-Ethoxy-2′-fluoro-biphenyl-4-ylmethoxy)-1,2,3,4-tetrahydro-naphthalen-1-yl]-acetic acid]"
18,0.1 to 1,"Cc1ccc(-c2nc(C)c(COc3ccc4c(c3)OCC[C@@H](C(=O)O)C4)s2)cc1 [Example 61, 8-((4-Methyl-2-p-tolylthiazol-5-yl)methoxy)-2,3,4,5-tetrahydrobenzo[b]oxepine-4-carboxylic acid]"
19,1 to 10,O=C(O)[C@@H]1CCOc2cc(OCc3cccc(-c4ccc(C(F)(F)F)cc4)c3)ccc2C1 [Example 63]
20,0.1 to 1,Cc1c(Cl)cccc1-c1cccc(COc2ccc3c(c2)OCC[C@@H](C(=O)O)C3)c1 [Example 64]
21,1 to 10,Cc1c(Cl)cccc1-c1cccc(COc2ccc3c(c2)OCC[C@H](C(=O)O)C3)c1 [Example 65]

row,SMILES,EC50 [µM]
1,"C=C1COc2cc(OCc3ccc(-c4cc(C)ccc4OCCCC)cc3)ccc2[C@H]1CC(=O)O [Example 36, [(S)-7-(2′-Butoxy-5′-methyl-biphenyl-4-ylmethoxy)-3-methylene-chroman-4-yl]-acetic acid]",< 0.1
2,"C=C1COc2cc(OCc3ccc(-c4cc(C)ccc4OCCCC)cc3)ccc2[C@@H]1CC(=O)O [Example 37, [(R)-7-(2′-Butoxy-5′-methyl-biphenyl-4-ylmethoxy)-3-methylene-chroman-4-yl]-acetic acid]",0.1 to 1
